From ChEMBL document CHEMBL1201862, “PubChem BioAssay data set” (2004)
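Exposure lasted 48 hours, with cells grown in 96-well plates and compounds tested at five concentrations. Here, GI50 denotes the concentration required for 50% inhibition of growth.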 Calls of active or inactive are those of the source. No stated cut-off is given here; in the data, active = GI50 up to about 1.1 µM and inactive = higher.

Assays:
Assay in all cases: growth of human tumour cells (NCI), 48 h
A498 = test system: A498
A549 = test system: A549
CCRF-CEM = test system: CCRF-CEM
COLO 205 = test system: COLO 205
DLD-1 = test system: DLD-1
DMS-114 = test system: DMS-114
DMS-273 = test system: DMS-273
EKVX = test system: EKVX
HCC 2998 = test system: HCC 2998
HCT-116 = test system: HCT-116
HCT-15 = test system: HCT-15
HL-60 = test system: HL-60
HOP-18 = test system: HOP-18
HOP-62 = test system: HOP-62
HOP-92 = test system: HOP-92
HT-29 = test system: HT-29
IGROV-1 = test system: IGROV-1
K562 = test system: K562
KM-20L2 = test system: KM-20L2
KM12 = test system: KM12
LOX IMVI = test system: LOX IMVI
M19-MEL = test system: M19-MEL
MCF7 = test system: MCF7
MOLT-4 = test system: MOLT-4
Malme-3M = test system: Malme-3M
NCI-H226 = test system: NCI-H226
NCI-H23 = test system: NCI-H23
NCI-H460 = test system: NCI-H460
NCI-H522 = test system: NCI-H522
NCI/ADR-RES = test system: NCI/ADR-RES
OVCAR-3 = test system: OVCAR-3
OVCAR-4 = test system: OVCAR-4
OVCAR-5 = test system: OVCAR-5
OVCAR-8 = test system: OVCAR-8
RPMI-8226 = test system: RPMI-8226
RXF 393 = test system: RXF 393
SF-268 = test system: SF-268
SF-295 = test system: SF-295
SF-539 = test system: SF-539
SK-MEL-28 = test system: SK-MEL-28
SK-MEL-2 = test system: SK-MEL-2
SK-MEL-5 = test system: SK-MEL-5
SK-OV-3 = test system: SK-OV-3
SN12C = test system: SN12C
SNB-19 = test system: SNB-19
SNB-75 = test system: SNB-75
SNB-78 = test system: SNB-78
SW-620 = test system: SW-620
U-251 = test system: U-251
UACC-257 = test system: UACC-257
UACC-62 = test system: UACC-62
UO-31 = test system: UO-31
786-0 = test system: 786-0
ACHN = test system: ACHN
CAKI-1 = test system: CAKI-1
LXFL 529 = test system: LXFL 529
M14 = test system: M14
SR = test system: SR
TK-10 = test system: TK-10
XF498 = test system: XF498

CSc1nc(NC2OCC(O)C(O)C2O)c(N)c(=O)[nH]1 (stereo not given)
GI50 (A498): > 100 µM (inactive)
GI50 (A549): > 100 µM (inactive)
GI50 (CCRF-CEM): > 100 µM (inactive)
GI50 (COLO 205): > 100 µM (inactive)
GI50 (DLD-1): > 100 µM (inactive)
GI50 (DMS-114): > 100 µM (inactive)
GI50 (DMS-273): > 100 µM (inactive)
GI50 (EKVX): > 100 µM (inactive)
GI50 (HCC 2998): > 100 µM (inactive)
GI50 (HCT-116): > 100 µM (inactive)
GI50 (HCT-15): > 100 µM
GI50 (HL-60): > 100 µM (inactive)
GI50 (HOP-18): > 100 µM (inactive)
GI50 (HOP-62): > 100 µM (inactive)
GI50 (HOP-92): > 100 µM (inactive)
GI50 (HT-29): > 100 µM (inactive)
GI50 (IGROV-1): > 100 µM (inactive)
GI50 (K562): > 100 µM (inactive)
GI50 (KM-20L2): > 100 µM (inactive)
GI50 (KM12): > 100 µM (inactive)
GI50 (LOX IMVI): > 100 µM (inactive)
GI50 (M19-MEL): > 100 µM (inactive)
GI50 (MCF7): > 100 µM (inactive)
GI50 (MOLT-4): > 100 µM (inactive)
GI50 (Malme-3M): > 100 µM (inactive)
GI50 (NCI-H226): > 100 µM (inactive)
GI50 (NCI-H23): > 100 µM (inactive)
GI50 (NCI-H460): > 100 µM (inactive)
GI50 (NCI-H522): > 100 µM (inactive)
GI50 (NCI/ADR-RES): > 100 µM (inactive)
GI50 (OVCAR-3): > 100 µM (inactive)
GI50 (OVCAR-4): > 100 µM (inactive)
GI50 (OVCAR-5): > 100 µM (inactive)
GI50 (OVCAR-8): > 100 µM (inactive)
GI50 (RPMI-8226): > 100 µM (inactive)
GI50 (RXF 393): > 100 µM (inactive)
GI50 (SF-268): > 100 µM (inactive)
GI50 (SF-295): > 100 µM (inactive)
GI50 (SF-539): > 100 µM (inactive)
GI50 (SK-MEL-28): > 100 µM (inactive)
GI50 (SK-MEL-2): > 100 µM (inactive)
GI50 (SK-MEL-5): > 100 µM (inactive)
GI50 (SK-OV-3): > 100 µM (inactive)
GI50 (SN12C): > 100 µM (inactive)
GI50 (SNB-19): > 100 µM (inactive)
GI50 (SNB-75): > 100 µM (inactive)
GI50 (SNB-78): > 100 µM (inactive)
GI50 (SW-620): > 100 µM (inactive)
GI50 (U-251): > 100 µM (inactive)
GI50 (UACC-257): > 100 µM (inactive)
GI50 (UACC-62): > 100 µM (inactive)
GI50 (UO-31): > 100 µM (inactive)

C#CCn1c(=O)c2cccnc2n(CC#C)c1=O
GI50 (786-0): > 100 µM (inactive)
GI50 (A549): > 100 µM (inactive)
GI50 (ACHN): > 100 µM (inactive)
GI50 (CAKI-1): > 100 µM (inactive)
GI50 (CCRF-CEM): > 100 µM (inactive)
GI50 (COLO 205): > 100 µM (inactive)
GI50 (DLD-1): > 100 µM (inactive)
GI50 (DMS-273): > 100 µM (inactive)
GI50 (HCC 2998): > 100 µM (inactive)
GI50 (HCT-116): > 100 µM (inactive)
GI50 (HCT-15): > 100 µM
GI50 (HL-60): > 100 µM (inactive)
GI50 (HOP-18): > 100 µM (inactive)
GI50 (HOP-62): > 100 µM (inactive)
GI50 (HOP-92): > 100 µM (inactive)
GI50 (HT-29): > 100 µM (inactive)
GI50 (KM12): > 100 µM (inactive)
GI50 (LOX IMVI): > 100 µM (inactive)
GI50 (LXFL 529): > 100 µM (inactive)
GI50 (M14): > 100 µM (inactive)
GI50 (MOLT-4): > 100 µM (inactive)
GI50 (Malme-3M): > 100 µM (inactive)
GI50 (NCI-H226): > 100 µM (inactive)
GI50 (NCI-H23): > 100 µM (inactive)
GI50 (NCI-H460): > 100 µM (inactive)
GI50 (NCI-H522): > 100 µM (inactive)
GI50 (OVCAR-4): > 100 µM (inactive)
GI50 (OVCAR-5): > 100 µM (inactive)
GI50 (RPMI-8226): > 100 µM (inactive)
GI50 (RXF 393): > 100 µM (inactive)
GI50 (SF-268): > 100 µM (inactive)
GI50 (SF-295): > 100 µM (inactive)
GI50 (SK-MEL-28): > 100 µM (inactive)
GI50 (SK-MEL-2): > 100 µM (inactive)
GI50 (SK-MEL-5): > 100 µM (inactive)
GI50 (SK-OV-3): > 100 µM (inactive)
GI50 (SN12C): > 100 µM (inactive)
GI50 (SNB-19): > 100 µM (inactive)
GI50 (SNB-75): > 100 µM (inactive)
GI50 (SNB-78): > 100 µM (inactive)
GI50 (SR): > 100 µM (inactive)
GI50 (SW-620): > 100 µM (inactive)
GI50 (TK-10): > 100 µM (inactive)
GI50 (U-251): > 100 µM (inactive)
GI50 (UACC-257): > 100 µM (inactive)
GI50 (XF498): > 100 µM (inactive)

Cc1[nH]c2ccccc2c1C(=O)/C=C/c1ccccc1O
GI50 (786-0): > 100 µM (inactive)
GI50 (A498): > 100 µM (inactive)
GI50 (A549): > 100 µM (inactive)
GI50 (ACHN): > 100 µM (inactive)
GI50 (CAKI-1): > 100 µM (inactive)
GI50 (CCRF-CEM): > 100 µM (inactive)
GI50 (COLO 205): > 100 µM (inactive)
GI50 (DLD-1): > 100 µM (inactive)
GI50 (DMS-273): > 100 µM (inactive)
GI50 (EKVX): > 100 µM (inactive)
GI50 (HCC 2998): > 100 µM (inactive)
GI50 (HCT-116): > 100 µM (inactive)
GI50 (HL-60): > 100 µM (inactive)
GI50 (HOP-18): > 100 µM (inactive)
GI50 (HOP-62): > 100 µM (inactive)
GI50 (HT-29): > 100 µM (inactive)
GI50 (IGROV-1): > 100 µM (inactive)
GI50 (K562): > 100 µM (inactive)
GI50 (KM-20L2): > 100 µM (inactive)
GI50 (KM12): > 100 µM (inactive)
GI50 (LOX IMVI): > 100 µM (inactive)
GI50 (LXFL 529): > 100 µM (inactive)
GI50 (M14): > 100 µM (inactive)
GI50 (M19-MEL): > 100 µM (inactive)
GI50 (MOLT-4): > 100 µM (inactive)
GI50 (Malme-3M): > 100 µM (inactive)
GI50 (NCI-H226): > 10 µM (inactive)
GI50 (NCI-H23): > 100 µM (inactive)
GI50 (NCI-H460): > 100 µM (inactive)
GI50 (NCI-H522): > 100 µM (inactive)
GI50 (OVCAR-3): > 100 µM (inactive)
GI50 (OVCAR-4): > 100 µM (inactive)
GI50 (OVCAR-5): > 100 µM (inactive)
GI50 (OVCAR-8): > 100 µM (inactive)
GI50 (RXF 393): > 100 µM (inactive)
GI50 (SF-268): > 100 µM (inactive)
GI50 (SF-295): > 100 µM (inactive)
GI50 (SK-MEL-28): > 100 µM (inactive)
GI50 (SK-MEL-2): > 100 µM (inactive)
GI50 (SK-MEL-5): > 100 µM (inactive)
GI50 (SK-OV-3): > 100 µM (inactive)
GI50 (SN12C): > 100 µM (inactive)
GI50 (SNB-19): > 100 µM (inactive)
GI50 (SNB-75): > 100 µM (inactive)
GI50 (SR): > 100 µM (inactive)
GI50 (SW-620): > 100 µM (inactive)
GI50 (TK-10): > 100 µM (inactive)
GI50 (U-251): > 100 µM (inactive)
GI50 (UACC-257): > 100 µM (inactive)
GI50 (UACC-62): > 100 µM (inactive)
GI50 (UO-31): > 100 µM (inactive)
GI50 (XF498): > 100 µM (inactive)
